Test results as given in US9145354B2, “Pharmaceutical compounds” (priority 2011, dated 2015).
Where two headings read alike, the source gives them in different places.

What was measured:
[1] = test system: HCV subgenomic replicon in Huh-7 cells; experiment: Replicon Assay (Example B), luciferase readout EC50; format: cell-based
Protocol: The activities of compounds of the invention against HCV in a cellular environment were analysed using a replicon assay as described below.
(§1) Thus, Huh-7 cells persistently infected with an HCV-RNA construct (Bartenschlager, R. Hepatitis C replicons: potential role for drug development. Nature Rev. Drug Discov. 1, 911-916 (2002)) comprising: 5′ and 3′ non-translated regions (NTR); the non-structural genes NS3 to NS5b; as well as the G418 drug resistance gene, neomycin, (for selection of cells carrying HCV replicon RNA) fused to the firefly Luciferase reporter gene (pFKI3889Iuc-ubi-neo/NS3-3′/ET) were used to determine the cell based antiviral activity of compounds using luciferase activity as an indirect readout of HCV RNA load. In this assay […] huh-7 cells persistently infected with the HCV subgenomic replicon construct above were plated/well in a 96 well tissue culture plate. The cells were allowed to attach overnight in DMEM medium supplemented with 10% FBS 1% NEAA, and 250 μg/ml gentamicin. The following day the medium was replaced with 200 μl/well of fresh medium as described above lacking gentamicin. Semilog dilutions of compounds in medium were then added to triplicate wells (non-edge) of the cultured cells to give a 0.1% DMSO final concentration. Plates were then incubated at 37° C. in an atmosphere of 5% CO2 and air for 72 h. […] The plate was then read at 535 nm (excitation) and 590 nm (emission) on a SpectraMax Gemini reader (Molecular Devices) to determine the number of viable cells by measuring the conversion of rezasurin (Alamar blue) to resorufin in response to mitochondrial activity. In order to determine the antiviral effect of these compounds EC50 values were determined by measuring the luciferase activity of the cells. Alamar blue solution was removed from the wells and replaced with 100 μl/well of medium along with 100 μl/well of Bright-Glo reagent and incubated at room temperature for 5 minutes before transferring 100 μl/well to a white bottom 96 well plate to read in a luminometer as described in the Bright-Glo Luciferase Assay System protocol (promega).

[2] = Replicon Assay (Example B), Alamar Blue cytotoxicity CC50; format: cell-based; settings: human, lower value of the cell pair
Source text: as §1

full length NS3/4a = full length NS3/4a (Hepatitis C virus genotype 1b (isolate BK) (HCV), UniProt P26663); experiment: NS3 Protease Assay (Example A), FRET-based; format: biochemical
Summary of the method: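 Full-length NS3/4a, made in-house, with an NS4A/B-derived peptide substrate carrying QXL520 quencher and 5-FAMsp fluorophore. Buffer 50 mM Tris pH8, 20 mM DTT, 1% CHAPS, 10% glycerol, 5% DMSO. Fluorescence followed 30 min at room temperature; IC50 from initial rates of replicate curves.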

[3] = replicon assay, luciferase readout, upper value of the cell pair, read-out: Assay B EC50
[4] = HCV NS3 protease assay, full length NS3/4a, read-out: Assay A IC50 (μM) average
[5] = read-out: IC50 against the protease activity of the full length NS3/4a
[6] = Hepatitis C virus, Huh-7, replicon assay, luciferase readout, upper value of the cell pair, read-out: Assay B EC50

full length NS3/4a, sequence (P26663 1027-1657): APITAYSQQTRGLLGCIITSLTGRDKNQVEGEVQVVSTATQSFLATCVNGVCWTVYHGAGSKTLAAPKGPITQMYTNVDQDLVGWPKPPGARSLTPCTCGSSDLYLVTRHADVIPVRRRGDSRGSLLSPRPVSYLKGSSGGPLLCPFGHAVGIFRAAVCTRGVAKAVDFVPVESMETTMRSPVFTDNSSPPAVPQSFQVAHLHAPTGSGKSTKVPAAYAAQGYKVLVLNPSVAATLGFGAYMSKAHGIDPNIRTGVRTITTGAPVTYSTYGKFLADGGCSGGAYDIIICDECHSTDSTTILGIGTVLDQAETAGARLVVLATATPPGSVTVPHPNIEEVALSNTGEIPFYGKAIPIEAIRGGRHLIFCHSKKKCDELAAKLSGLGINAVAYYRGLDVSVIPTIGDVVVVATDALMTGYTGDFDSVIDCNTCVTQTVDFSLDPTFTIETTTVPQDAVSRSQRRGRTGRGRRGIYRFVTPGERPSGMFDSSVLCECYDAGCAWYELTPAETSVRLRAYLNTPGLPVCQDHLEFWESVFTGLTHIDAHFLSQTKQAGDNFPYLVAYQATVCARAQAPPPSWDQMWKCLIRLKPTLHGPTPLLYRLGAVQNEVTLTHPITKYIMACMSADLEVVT

Row | SMILES | EC50 [1, 3] | CC50 at 72 h [2] | IC50 (full length NS3/4a; [4]) | IC50 (full length NS3/4a; [5]) | EC50 [1, 6] | EC50 ([1]; Hepatitis C virus, Huh-7, pre-determined EC50 used to set concentrations in combination studies, read-out: EC50 (replicon)) | inhibition at 0.01 µM (full length NS3/4a)
1 | CCC(NC1CCCC1C(N)=O)c1ccc(Cl)c(C(=O)c2ccc(N)nc2)c1F (racemic) [Example 125, 2-{[1-{3-[(6-aminopyridin-3-yl)carbonyl]-4-chloro-2-fluorophenyl}propyl]amino} cyclopentane-1-carboxamide] | 79 nM | – | – | – | – | – | –
2 | CCC(NC1CCCC1C(N)=O)c1ccc(Cl)c(C(=O)c2ccc(N)nc2)c1F (racemic) [Example 127, 2-{[1-{3-[(6-aminopyridin-3-yl)carbonyl]-4-chloro-2-fluorophenyl}propyl]amino} cyclopentane-1-carboxamide] | > 10000 nM | – | – | – | – | – | –
3 | CCC(NC1CCCC1C(N)=O)c1ccc(Cl)c(C(=O)c2ccc(N)nc2)c1F (racemic) [Example 161, 2-{[1-{3-[(6-aminopyridin-3-yl)carbonyl]-4-chloro-2-fluorophenyl}propyl]amino} cyclopentane-1-carboxamide] | > 10000 nM | – | – | – | – | – | –
4 | CCC(NC1CCCC1C(N)=O)c1ccc(Cl)c(C(=O)c2ccc(N)nc2)c1F (single isomer, unassigned) [Example 125, 2-{[1-{3-[(6-aminopyridin-3-yl)carbonyl]-4-chloro-2-fluorophenyl}propyl]amino} cyclopentane-1-carboxamide] | – | > 3000 nM | 0.29 µM | < 1 µM | – | – | –
5 | CC[C@@H](N)c1ccc(Cl)c(C(=O)c2ccccc2)c1F [Example 4, (1R)-1-(3-benzoyl-4-chloro-2-fluorophenyl)propan-1-amine] | – | > 10000 nM | 0.089 µM | < 1 µM | > 10000 nM | – | –
6 | CC[C@@H](N)c1ccc(Cl)c(C(=O)c2ccc(C#N)cc2)c1F [Example 9, 4-({3-[(1R)-1-aminopropyl]-6-chloro-2-fluorophenyl}carbonyl)-benzonitrile] | – | > 3000 nM | 0.076 µM | < 1 µM | > 3000 nM | – | –
7 | N[C@@H](c1ccc(Cl)c(C(=O)c2ccccc2)c1F)C1CC1 [Example 11, (R)-(3-benzoyl-4-chloro-2-fluorophenyl)-(cyclopropyl)-methanamine] | – | > 3000 nM | 0.13 µM | < 1 µM | > 3000 nM | – | –
8 | CCOC(=O)c1cnn(-c2ccc(C(=O)c3c(Cl)ccc([C@H](N)CC)c3F)cn2)c1 [Example 41, ethyl 1-[5-({3-[(1R)-1-aminopropyl]-6-chloro-2-fluorophenyl}carbonyl)pyridin-2-yl]-1H-pyrazole-4-carboxylate] | – | – | 1.6 µM | 1 to 5 µM | 9 nM | – | –
9 | COc1cc(C(=O)c2c(Cl)ccc([C@H](N)C3CC3)c2F)ccc1C#N [Example 69, 4-({3-[(R)-amino(cyclopropyl)methyl]-6-chloro-2-fluorophenyl}carbonyl)-2-methoxybenzonitrile] | – | > 1000 nM | 0.052 µM | – | 33 nM | – | –
10 | CC[C@@H](N)c1ccc(Cl)c(C(=O)c2ccc(N)c(C#N)c2)c1F [Example 72, 2-Amino-5-[3-((R)-1-amino-propyl)-6-chloro-2-fluoro-benzoyl]-benzonitrile] | – | – | – | – | 32 nM | – | –
11 | CC[C@@H](N)c1ccc(Cl)c(C(=O)c2ccc(N)c(Cl)c2)c1F [Example 74, (4-Amino-3-chloro-phenyl)-[3-((R)-1-amino-propyl)-6-chloro-2-fluoro-phenyl]-methanone] | – | – | – | – | 32 nM | – | –
12 | CC[C@@H](N[C@@H](C)CC(N)=O)c1ccc(Cl)c(C(=O)c2ccc(N)nc2)c1F [Example 81, (3S)-3-{[(1R)-1-{3-[(6-aminopyridin-3-yl)carbonyl]-4-chloro-2-fluorophenyl}propyl]-amino}butanamide] | – | > 3000 nM | 0.22 µM | – | 18 nM | 20 nM | –
13 | CC[C@@H](N[C@@H](C)CC(=O)NCCN)c1ccc(Cl)c(C(=O)c2ccccc2)c1F [Example 88, (3S)-N-(2-aminoethyl)-3-{[(1R)-1-(3-benzoyl-4-chloro-2-fluorophenyl)propyl]-amino}butanamide] | – | > 3000 nM | – | – | 45 nM | – | 52%
14 | CC[C@@H](N[C@@H](C)CC(N)=O)c1ccc(Cl)c(C(=O)c2ccc(F)c(F)c2)c1F [Example 90, (3S)-3-{[(1R)-1-{4-chloro-3-[(3,4-difluorophenyl)carbonyl]-2-fluorophenyl}propyl]amino}-butanamide] | – | > 3000 nM | 0.13 µM | – | 380 nM | – | –
15 | CC[C@@H](N[C@@H](C)CC(N)=O)c1ccc(Cl)c(C(=O)c2ccc(C#N)cc2)c1F [Example 91, (3S)-3-{[(1R)-1-{4-chloro-3-[(4-cyanophenyl)carbonyl]-2-fluorophenyl}propyl]amino}-butanamide] | – | > 10000 nM | 0.066 µM | – | 1.2 nM | – | –
16 | CC[C@@H](N[C@@H](C)CC(N)=O)c1ccc(Cl)c(C(=O)c2cccnc2)c1F [Example 93, (3S)-3-{[(1R)-1-{4-chloro-2-fluoro-3-[(pyridin-3-yl)carbonyl]phenyl}propyl]-amino}butanamide] | – | > 3000 nM | 0.14 µM | – | 510 nM | – | –
17 | CC[C@@H](N[C@@H](C)CC(N)=O)c1ccc(Cl)c(C(=O)c2cccc(F)c2)c1F [Example 95, (3S)-3-{[(1R)-1-{4-chloro-2-fluoro-3-[(3-fluorophenyl)-carbonyl]-phenyl}propyl]-amino}-butanamide] | – | > 3000 nM | 0.085 µM | – | 41 nM | – | –
18 | CC[C@@H](N[C@@H](C)CC(N)=O)c1ccc(Cl)c(C(=O)c2ccc(F)cc2)c1F [Example 97, (3S)-3-{[(1R)-1-{4-chloro-2-fluoro-3-[(4-fluorophenyl)-carbonyl]-phenyl}propyl]-amino}-butanamide] | – | > 3000 nM | 0.047 µM | – | 19 nM | – | –
19 | CC[C@@H](N[C@@H](C)CC(N)=O)c1ccc(Cl)c(C(=O)c2cccc(C#N)c2)c1F [Example 101, (3S)-3-{[(1R)-1-{4-chloro-3-[(3-cyanophenyl)carbonyl]-2-fluorophenyl}propyl]amino}-butanamide] | – | > 3000 nM | 0.11 µM | < 1 µM | 160 nM | – | –
20 | C[C@@H](CC(N)=O)N[C@@H](c1ccc(Cl)c(C(=O)c2ccccc2)c1F)C1CC1 [Example 103, (3S)-3-{[(R)-(3-benzoyl-4-chloro-2-fluorophenyl)-(cyclopropyl)-methyl]-amino}-butanamide] | – | > 3000 nM | 0.077 µM | < 1 µM | 5.8 nM | – | –
21 | CC[C@@H](N[C@@H](C)CC(N)=O)c1ccc(Cl)c(C(=O)c2ccccn2)c1F [Example 104, (3S)-3-{[(1R)-1-{4-chloro-2-fluoro-3-[(pyridin-2-yl)carbonyl]phenyl}-propyl]amino}butanamide] | – | > 3000 nM | 0.24 µM | < 1 µM | 390 nM | – | –
22 | CC[C@@H](N[C@@H](C)CC(N)=O)c1ccc(Cl)c(C(=O)c2ccncc2)c1F [Example 106, (3S)-3-{[(1R)-1-{4-chloro-2-fluoro-3-[(pyridin-4-yl)carbonyl]phenyl}-propyl]amino}butanamide] | – | > 3000 nM | 0.11 µM | < 1 µM | 57 nM | – | –
23 | CC[C@@H](N[C@@H](C)CC(N)=O)c1ccc(Cl)c(C(=O)c2ccns2)c1F [Example 108, (3S)-3-{[(1R)-1-{4-chloro-2-fluoro-3-[(1,2-thiazol-5-yl)carbonyl]phenyl}propyl]-amino}butanamide] | – | > 3000 nM | 0.07 µM | – | 270 nM | – | –
24 | [2H]C([2H])([2H])C([2H])([2H])[C@@H](N[C@@H](C)CC(N)=O)c1ccc(Cl)c(C(=O)c2ccc(N)c(C)c2)c1F [Example 268, (3S)-3-{[(1R)-1-{3-[(4-amino-3-methylphenyl)carbonyl]-4-chloro-2-fluorophenyl}(2,2,3,3,3-deutero)propyl]amino}-butanamide] | – | – | 0.19 µM | < 1 µM | 16 nM | – | –
25 | C[C@@H](CC(=O)NCCN)NCc1ccc(Cl)c(C(=O)c2ccccc2)c1F [Example 282, (3S)—N-(2-aminoethyl)-3-{[(3-benzoyl-4-chloro-2-fluorophenyl)methyl]-amino}butanamide] | – | – | – | – | 3200 nM | – | 65%
